In patent EP2871962B1, “WOOD PROTECTION AGAINST MICROORGANISMS BY LACCASE-CATALYSED IODINATION” (EMPA Eidgenössische Materialprüfungs- und Forschungsanstalt, priority 2012, dated 2013):
“And” between values parts separate entries of the source, which are not always exact repeats. Equal entries are not always repeated. Each block holds one molecule with its values, some of them ahead of it.

What was measured:
Aureobasidium pullulans = assay: Growth inhibition by iodinated and non-iodinated phenols on agar plates (Example 2); format: cell-based; conditions: ± standard deviation, n = 6; for inhibition at 1000 µM: 1mM in 2% malt extract agar; for inhibition at 2000 µM: 2mM in 2% malt extract agar; for inhibition at 4000 µM: 4mM in 2% malt extract agar
Method: (§1) Vanillin and ethyl-vanillin (4 mM) were incubated in the presence of commercial T. versicolor laccase (250 mg per L), 0.1 mM mediator ABTS and 50 mM potassium iodide in citrate-phosphate buffer (pH 5.0) for 20 h at room temperature. The reaction vessels with a liquid volume of 1 L were aerated with pressurized air through a frit. Reaction products were extracted by addition of 250 mL ethyl-acetate, thorough mixing and subsequent separation of the organic phase. The solvent was removed in a rotary evaporator at 50°C under vacuum until solid products were obtained. Reaction products were re-dissolved in ethyl-acetate and analysed by HPLC-MS.
(§2) For biotests, iodo-vanillin and iodo-ethyl-vanillin were dissolved to a concentration of 0.4 M in DMSO (stock solution). The non-iodinated reference compounds (educts) vanillin and ethyl-vanillin were dissolved to a concentration of 0.1 M in ethanol. All compounds were evaluated on agar plates (Ø 90mm). The compounds were added to 2% malt extract agar after autoclaving to final concentrations of 1, 2 and 4 mM, respectively. Control plates contained similar amounts of DMSO or ethanol as added with stock solutions. Supplemented agar plates were inoculated in the centre with a mycelium agar disc (9-mm diameter) taken from the submargins of 14-day old cultures of the basidiomycetes Oligoporus placenta, Gloephyllum trabeum, Coniophora puteana, Trametes versicolor and the ascomycete Aureobasidium pullulans. Plates were incubated at 22 °C and 70% RH. The radial fungal growth was estimated by measuring the colony diameter, and the growth inhibition was expressed as percentage reduction of this value after similar incubation times. Growth inhibition data of 6 replicate plates per compound/control were arcsine transformed prior to statistical analysis (ANOVA) and back transformed to numerical values for visualization. Means were separated using Tukey's HSD (honestly significant difference) test at significance levels with P values of <0.05 and <0.001. The statistical package used for all analyses was SPSS (version 17.0; SPSS Inc., Chicago, IL).

Coniophora puteana = assay: as above; format: cell-based; conditions: ± standard deviation, n = 6, read-out: Growth inhibition, C. puteana; for inhibition at 1000 µM: 1mM in 2% malt extract agar; for inhibition at 2000 µM: 2mM in 2% malt extract agar; for inhibition at 4000 µM: 4mM in 2% malt extract agar
Method: as §1, §2

Gloephyllum trabeum = assay: as above; format: cell-based; conditions: Gloeophyllum trabeum, ± standard deviation, n = 6, read-out: Growth inhibition, G. trabeum; for inhibition at 1000 µM: 1mM in 2% malt extract agar; for inhibition at 2000 µM: 2mM in 2% malt extract agar; for inhibition at 4000 µM: 4mM in 2% malt extract agar
Method: as §1, §2

Oligoporus placenta = assay: as above; format: cell-based; conditions: Rhodonia placenta, ± standard deviation, n = 6, read-out: Growth inhibition, O. placenta; for inhibition at 1000 µM: 1mM in 2% malt extract agar; for inhibition at 2000 µM: 2mM in 2% malt extract agar; for inhibition at 4000 µM: 4mM in 2% malt extract agar
Method: as §1, §2

Trametes versicolor = assay: as above; format: cell-based; conditions: ± standard deviation, n = 6, read-out: Growth inhibition, T. versicolor; for inhibition at 1000 µM: 1mM in 2% malt extract agar; for inhibition at 2000 µM: 2mM in 2% malt extract agar; for inhibition at 4000 µM: 4mM in 2% malt extract agar
Method: as §1, §2

[1] = system: Trametes versicolor laccase; assay: Laccase-catalysed oxidation of iodide to tri-iodide with redox mediators (absorbance at 353 nm); format: biochemical
Method: The enzyme used in the study was a commercial laccase from Trametes versicolor (Sigma-Aldrich). […] Reactions were performed in transparent polymethyl methacrylate (PMMA) cuvettes or polystyrene micro titer plates. Change in absorbance (ΔA) at 420nm was recorded in intervals of 10sec for 3min. Samples with very high activities were diluted 10-fold with ddH2O before using them in the assay. Volumetric activities were calculated using an extinction coefficient (ε) of 0.036µmol^-1 1 cm^-1 (36000mol^-1 1 cm^-1) (22), according to the following equation (Δt in min, V in µl):
The laccase-catalysed oxidation of iodide (I^-) to iodine (I2) was monitored by the formation of triiodide (I3^-) at 353nm (laccase activity 0.12U ml^-1, 50mM iodide, citrate buffer pH 4.5, extinction coefficient of I3^- ε = 28000 mol^-1 1 cm^-1) (24, 17). […] Well-known synthetic (ABTS) and natural (acetosyringone [ACS], 4-hydroxybenzoic acid [HBA]) laccase mediators were tested (25, 26). […] The pH optima for mediator-enhanced oxidation of iodide were determined using the McIlvain citrate-phoshate buffer series.

[2] = system: A. pullulans, C. picea, C. herbarum and D. pinicola; assay: Biotests 2: blue stain test of treated wood (EN 152-2, modified); format: cell-based; conditions: 6 weeks of incubation, mean of stain categories 0-5 ±SE, n = 6, Mediator = ACS (50 µM); for Blue stain discoloration, Leached: wood batch 2, leached (EN 84); for Blue stain discoloration, Non-leached: wood batch 2, non-leached
Method: (§3) Wood specimens (batch 1: 10 x 10 x 5 mm, length x width x height used in the biotests 1 and batch 2: 20 x 15 x 10 mm used in the biotests 2), free of defects, were extracted longitudinally from boards of Norway spruce trees grown in Switzerland, in order to minimize the influence of natural variability. All specimens were conditioned at 23C°(±1°C) and 50% (±5%) relative humidity (RH) until they reached an equilibrium moisture content of approximately 8-10%. Prior to the wood treatment the specimens were sterilized by autoclaving for 20min at 121°C(±1°C).
The enzymatic wood iodination and polymerisation were carried out by dipping three wood specimens of batch 1 in 30ml or 12 wood specimens of batch 2 in 200ml reaction solution (pH 4-6) containing one of the phenolic compounds (4mM), or potassium iodide (1 or 50mM) in the presence of laccase ([…]) for 18h at room temperature. Furthermore, to test the suitability of HBA (5mM) as mediator some additional experiments were performed. The chemical preservative VP 7/ 260a containing IPBC and propiconazole as active agents was used as a benchmark with a final concentration of 5% (v/v). The wood specimens were treated and used in the biological tests, with the following modifications: • Control = Wood treated with buffer • L = Wood treated with laccase alone • L-M = Wood treated with laccase and mediator • Iso = Wood treated with isoeugenol • Iso-L = Wood treated with isoeugenol and laccase • Iso-L-M = Wood treated with isoeugenol, laccase and mediator • Thy = Wood treated with thymol • Thy-L = Wood treated with thymol and laccase • Thy-L-M = Wood treated with thymol and laccase and mediator • Ix = Wood treated with 1 or 50mM iodide (x = concentration of iodide) • Ix-L = Wood treated with 1 or 50mM iodide and laccase • Ix-L-M = Wood treated with 1 or 50mM iodide, laccase and mediator • VP7 = Wood treated with VP 7/ 260a (IPBC and propiconazole)
After the reaction all wood specimens of batch 1 had undergone a leaching procedure comprising five cycles of incubation in ddH2O (liquid volume min. 10 times the specimen volume, 100rpm, room temperature, 24h) and water exchange. Half of the wood specimens of batch 2 were exposed to leaching for two weeks including nine steps of water changing according to EN 84 (29), the other half was used without leaching in biotests.
The resistance of the treated wood against blue stain and wood decay fungi was determined in biotests 2 according to the European standards EN 152-2 (30) and EN 113 (31) with slight modifications. The EN 152 is a classical test for blue staining, originally intended to determine the effectiveness of a preservative treatment against blue stain in service. The treated wood samples were dipped into a spore suspension of A. pullulans, C. picea, C. herbarum and D. pinicola (cfu: > 10^5) and placed horizontally in a Kolle flask containing vermiculite (18g) which was inoculated additionally with 40ml of the spore suspension. The incubated specimens were stored in an incubation room at 22°C and 70% RH (6 weeks). After incubation the surface was evaluated by classifying the percentage of blue-stain discolouration from 0 to 5 according to Thwaites et al. (32) (Table 1). Table 1: Determination of the blue stain discoloration

O. placenta [3] = assay: Biotests 2: mini-wood block decay test (comparable with EN 113), mass loss; format: cell-based, Oligoporus placenta; conditions: wood batch 2, non-leached and leached, 12 weeks incubation; numbers only in Figure 2
Method: as §3
(§4) The enzymatic wood iodination and polymerisation were carried out by dipping three wood specimens of batch 1 in 30ml or 12 wood specimens of batch 2 in 200ml reaction solution (pH 4-6) containing one of the phenolic compounds (4mM), or potassium iodide (1 or 50mM) in the presence of laccase (10U ml^-1) and either 10µM ABTS for batch 1 or 100µM ACS for batch 2 under shaking (100rpm) for 18h at room temperature. […]
(§5) The treated wood was aseptically added to fully colonised Petri dishes (135mm diameter, 2% malt extract agar (MEA)) by O. placenta and T. versicolor respectively and incubated at 22C° and 70% RH. The ability of the wood-decay fungi to degrade the wood was determined gravimetrically after incubation periods of 6 and 12 weeks and expressed as mass loss (%) according to EN 113 (31): Mass loss(%) = (m0 −m1)/(m0)⋅100 [formula] […]

T. versicolor [4] = assay: as above; format: cell-based, Trametes versicolor; conditions: wood batch 2, non-leached and leached, 12 weeks incubation; numbers only in Figure 2
Method: as §3, §4, §5

A. alternata = assay: Growth inhibition on supplemented malt extract agar plates (Example 1); format: cell-based; conditions: 2% MEA; phenolic derivatives 4mM, VP 7/ 260a 5% (v/v); without wood; ±SE, n = 3
D. pinicola = assay: as above; format: cell-based, Discula pinicola; conditions: 2% MEA; phenolic derivatives 4mM, VP 7/ 260a 5% (v/v); without wood; ±SE, n = 3
Method: (§6) In addition to the mentioned biotests 2 the antimicrobial activity of the reaction derivatives without wood was evaluated on agar plates (5), excluding the laccase-catalysed iodine solution. It was assumed that the iodine molecules would react with starch from malt to form polyiodide chains, which would prevent the antimicrobial effect (33). The laccase catalysis of the phenols was performed under shaking for 18h at room temperature as described above and the phenolic derivatives were added to 2% MEA after autoclaving to a final concentration of 4mM. The fungicide VP 7/ 260a were added to a concentration of 5% (v/v). The supplemented Petri dishes were inoculated in the centre with a mycelium agar disc (5mm diameter) taken from the sub-margin of 14 day old cultures of the ascomycetes A. pullulans and D. pinicola and the basidiomycetes O. placenta and T. versicolor. The fungal growth was estimated by measuring the colony diameter and the growth inhibition was expressed as % of reference grown on non-supplemented malt agar.

O. placenta [5] = assay: as above; format: cell-based, Oligoporus placenta; conditions: 2% MEA; phenolic derivatives 4mM, VP 7/ 260a 5% (v/v); without wood; ±SE, n = 3
Method: as §6

T. versicolor [6] = assay: as above; format: cell-based, Trametes versicolor; conditions: 2% MEA; phenolic derivatives 4mM, VP 7/ 260a 5% (v/v); without wood; ±SE, n = 3
Method: as §6

Compound: COc1cc(C=O)cc(I)c1O [5-Iodo-Vanillin (commercial), 4-hydroxy-3-iodo-5-methoxybenzaldehyde]
inhibition at 1000 µM (Aureobasidium pullulans): 1.36 ± 1.4% | inhibition at 2000 µM (Aureobasidium pullulans): 7.31% | inhibition at 4000 µM (Aureobasidium pullulans): 1.51 ± 2.4% | inhibition at 1000 µM (Coniophora puteana): 66.4% | inhibition at 2000 µM (Coniophora puteana): 65.1% | inhibition at 4000 µM (Coniophora puteana): 56.5% | inhibition at 1000 µM (Gloephyllum trabeum): 40.9% | inhibition at 2000 µM (Gloephyllum trabeum): 37.3% | inhibition at 4000 µM (Gloephyllum trabeum): 38.1% | inhibition at 1000 µM (Oligoporus placenta): 17.7% | inhibition at 2000 µM (Oligoporus placenta): 22.5% | inhibition at 4000 µM (Oligoporus placenta): 9.06% | inhibition at 1000 µM (Trametes versicolor): 78.5% | inhibition at 2000 µM (Trametes versicolor): 82% | inhibition at 4000 µM (Trametes versicolor): 82.9%

laccase-catalysed tri-iodide formation ([1]; pH 4, 10µM mediator): 0.13 µM/min/mg
Compound: CCn1c(=NN=c2sc3cc(S(=O)(=O)O)ccc3n2CC)sc2cc(S(=O)(=O)O)ccc21 [ABTS, 2,2-azino-bis(3-ethylbenzothiazoline-6-sulfonic acid)]

laccase-catalysed tri-iodide formation ([1]; pH 5, 50µM mediator): 0.89 µM/min/mg
Compound: COc1cc(C(C)=O)cc(OC)c1O [ACS, acetosyringone]

Compound: CCOc1cc(C=O)ccc1O [Ethylvanillin]
inhibition at 1000 µM (Coniophora puteana): 0% | inhibition at 2000 µM (Coniophora puteana): 21.1 ± 18.3% | inhibition at 4000 µM (Coniophora puteana): 31.2 ± 21.2% | inhibition at 1000 µM (Gloephyllum trabeum): 15.8% | inhibition at 2000 µM (Gloephyllum trabeum): 23.9% | inhibition at 1000 µM (Oligoporus placenta): 0% | inhibition at 2000 µM (Oligoporus placenta): 0% | inhibition at 4000 µM (Oligoporus placenta): 0% | inhibition at 1000 µM (Trametes versicolor): 10.2% | inhibition at 2000 µM (Trametes versicolor): 29.9% | inhibition at 4000 µM (Trametes versicolor): 11.4%

function as mediator ([1]; data not shown): not to have a function as mediator
Compound: O=C(O)c1ccc(O)cc1 [HBA, 4-hydroxybenzoic acid]

Compound: [I-].[K+] [I1, potassium iodide]
Blue stain discoloration, Leached [2]: 3.7 ±0.4 | Blue stain discoloration, Non-leached [2]: 2.2 ±0.4

Compound: Cc1ccc(C(C)C)c(O)c1 [Thy, thymol]
Blue stain discoloration, Leached [2]: 3.5 and 3.5 ±0.3 | Blue stain discoloration, Non-leached [2]: 2.5 and 2.5 ±0.6 | mass loss of wood caused by O. placenta (result in words) (O. placenta [3]): minor effect | mass loss of wood caused by T. versicolor (result in words) (T. versicolor [4]): minor effect | Growth inhibition [%] on agar plate compared to control, A. alternata (A. alternata): 100 ±0.0% | Growth inhibition [%] on agar plate compared to control, D. pinicola (D. pinicola): 100 ±0.0% | Growth inhibition [%] on agar plate compared to control, O. placenta (O. placenta [5]): 100 ±0.0% | Growth inhibition [%] on agar plate compared to control, T. versicolor (T. versicolor [6]): 100 ±0.0%

Compound: COc1cc(C=O)ccc1O [Vanillin, 4-hydroxy-3-methoxybenzaldehyde]
inhibition at 1000 µM (Aureobasidium pullulans): 0% | inhibition at 2000 µM (Aureobasidium pullulans): 8.52 ± 14.8% | inhibition at 4000 µM (Aureobasidium pullulans): 17.9 ± 11.5% | inhibition at 1000 µM (Coniophora puteana): 18.2 ± 31.6% | inhibition at 2000 µM (Coniophora puteana): 24.2% | inhibition at 4000 µM (Coniophora puteana): 61.5% | inhibition at 1000 µM (Gloephyllum trabeum): 2.19 ± 1% | inhibition at 2000 µM (Gloephyllum trabeum): 13.4% | inhibition at 4000 µM (Gloephyllum trabeum): 51.4% | inhibition at 1000 µM (Oligoporus placenta): 0% | inhibition at 2000 µM (Oligoporus placenta): 11.8 ± 8.5% | inhibition at 4000 µM (Oligoporus placenta): 55.3% | inhibition at 1000 µM (Trametes versicolor): 6.59 ± 4.2% | inhibition at 2000 µM (Trametes versicolor): 18.8% | inhibition at 4000 µM (Trametes versicolor): 42%
